These results are taken from ChEMBL document CHEMBL1201862, “PubChem BioAssay data set” (2004).

Among the test systems are OVCAR-3; PC-3; U-251; LOX IMVI; K562; SNB-19; BT-549; KM12; IGROV-1; SK-MEL-28; SNB-75; MOLT-4; DU-145; SR; NCI-H460; HL-60; OVCAR-5; NCI/ADR-RES; A549; MDA-N.
Assay in all cases: growth of human tumour cells (NCI), 48 h

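Grown in 96-well plates, cells were treated for 48 hours with each compound at five concentrations. Insufficient inhibition: endpoint recorded as highest concentration tested. The concentration for 50% growth inhibition is given as GI50.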 Activity calls are given as the source filed them. Cut-off read from the data, not from the text of the source: active = GI50 up to about 1.1 µM and inactive = higher.

As to `Cc1ccc(/C=N/Nc2nncc3ccccc23)s1`, the GI50 is > 55.8 µM (inactive) with OVCAR-3; 96.8 µM (inactive) in the test on PC-3; 53.2 µM (inactive) in the test with U-251; > 61.2 µM (inactive) in the test with LOX IMVI; > 100 µM (inactive) in the test on K562; > 100 µM (inactive) in the test with SNB-19. The GI50 was > 55.8 µM (inactive) in the test with BT-549; > 46.2 µM (inactive) in the test with KM12; > 61 µM (inactive) with IGROV-1; > 100 µM (inactive) in the test on SK-MEL-28; > 44.2 µM (inactive) with SNB-75; > 100 µM (inactive) in the test with MOLT-4. Moreover, the GI50 with DU-145 is > 31.6 µM (inactive); in the test with SR, > 100 µM (inactive); in the test on NCI-H460, > 100 µM (inactive); in the test with HL-60, > 100 µM (inactive); in the test with OVCAR-5, > 100 µM (inactive); in the test with NCI/ADR-RES, 48 µM (inactive). Moreover, the GI50 is > 100 µM (inactive) in the test with A549 and > 61.4 µM (inactive) in the test with MDA-N.
For the compound `O=C1C(Cl)=C(N2CCN(c3ccccn3)CC2)C(=O)c2c(O)ccc(O)c21`, the GI50 was 1.95 µM (inactive) in the test with OVCAR-3; 1.94 µM (inactive) with PC-3; 8.49 µM (inactive) in the test on U-251; 0.157 µM (active) in the test on LOX IMVI; 0.512 µM (active) with K562; 5.92 µM (inactive) in the test on SNB-19. Moreover, the GI50 was 1.9 µM (inactive) with BT-549; 3.1 µM (inactive) in the test with KM12; 1.63 µM (inactive) in the test with IGROV-1; 1.9 µM (inactive) in the test with SK-MEL-28; 1.89 µM (inactive) with SNB-75; 0.456 µM (active) in the test with MOLT-4. Also, the GI50 in the test on DU-145 is 3.66 µM (inactive); in the test on SR it was 0.881 µM (active); in the test on NCI-H460, 3.07 µM (inactive); in the test with HL-60 it was 0.128 µM (active); in the test on OVCAR-5 it was 6.08 µM (inactive); in the test on NCI/ADR-RES, 2.38 µM (inactive). Further, the figures for the GI50 with A549 and with MDA-N were 6.49 µM (inactive) and 1.21 µM (inactive), respectively.
On to `Nc1nc(O)nc2snnc12`, for which the GI50 was > 100 µM (inactive) with OVCAR-3; > 100 µM (inactive) in the test on PC-3; 25.1 µM (inactive) with U-251; 2.92 µM (inactive) in the test on LOX IMVI; 7.26 µM (inactive) in the test on K562; > 87.9 µM (inactive) in the test on SNB-19. For the same compound, the GI50 with BT-549 was 3.54 µM (inactive); in the test on KM12, > 100 µM (inactive); in the test with IGROV-1 it was > 100 µM (inactive); in the test on SK-MEL-28, 6.27 µM (inactive); in the test on SNB-75, 5.28 µM (inactive); with MOLT-4, 7.6 µM (inactive). For the same compound, the GI50 in the test on DU-145 is 16.9 µM (inactive); in the test on SR, 9.46 µM (inactive); in the test with NCI-H460, > 100 µM (inactive); in the test with HL-60, 2.79 µM (inactive); in the test on OVCAR-5, > 100 µM (inactive); in the test with NCI/ADR-RES it was 32.6 µM (inactive). The GI50 with A549 was > 100 µM (inactive); in the test with MDA-N, 8.28 µM (inactive).
In the case of `CC(=O)OC(C)(C)/N=N/c1ccc(Br)cc1`, the GI50 in the test on OVCAR-3 is 13.6 µM (inactive); in the test with PC-3 it was 24.3 µM (inactive); in the test on U-251, 25.1 µM (inactive); with LOX IMVI it was 3.09 µM (inactive); with K562 it was 0.0596 µM (active); in the test on SNB-19 it was > 68.2 µM (inactive). Moreover, the GI50 with BT-549 is 97.7 µM (inactive); with KM12, 5.79 µM (inactive); in the test with IGROV-1, 18.7 µM (inactive); in the test on SK-MEL-28, 3.01 µM (inactive); in the test with SNB-75, > 53.5 µM (inactive); in the test on MOLT-4, 3.56 µM (inactive). Further, the GI50 with DU-145 was 54.2 µM (inactive); in the test on SR, 0.475 µM (active); with NCI-H460, 0.946 µM (active); in the test with HL-60, 0.653 µM (active); in the test with OVCAR-5, 1.66 µM (inactive); in the test with NCI/ADR-RES, 14.4 µM (inactive). Moreover, the GI50 is 6.04 µM (inactive) in the test with A549 and 0.178 µM (active) in the test on MDA-N.
